Measurements: patent US20030032771A1, “Peptide inhibitors of cellular proliferation” (priority 2001, published 2003)

System: Drosophila early embryos (syncytial blastoderm)
Test: Cytological analysis of mitosis in live Drosophila melanogaster embryos after microinjection (time-lapse confocal microscopy)
Type: in vivo
Description: Embryo microinjections. Microinjections of 0-2 hour Drosophila embryos were carried out as described previously (Sharp et al., J. Cell Biol. 144:125-138 (1999)). Briefly, embryos were initially injected with rhodamine-conjugated bovine tubulin (purchased from Molecular Probes or made in our own laboratory) allowed to recover for 5 minutes and then injected with antibodies or with buffer alone for controls. Because, in our hands, tubulin injections prior to the cortical migration of nuclei at cycle 10 […] normally halts development, embryos were injected with antibodies during cycle 11.
Time-lapse laser scanning confocal microscopy. All images were acquired on a Leica TCS SP confocal microscope run by the Leica TCS software. Time-series were generated using the ‘Time Series’ function contained in the control panel. Each image results from two accumulated (averaged) scans of the sample and new images were acquired every 5 seconds. Because changes in the MT arrays of early embryos occur so quickly, all of the images shown and analyzed in this study represent 1 focal plane (no z-series' were performed). This allowed for the highest temporal and spatial resolution with the least amount of bleaching and other damage resulting from multiple laser scans.
The peptide expressed as described in Example 1 was delivered to Drosophila early embryos (synicytial blastoderm) by microinjections. Drosophila is a much studied organism; its genome has been fully sequenced and its genetics and biochemistry are well understood. In addition, it provides a convenient system for live cytological analyses of mitosis. In the early embryo (syncytial blastoderm) the nuclei form a two-dimensional sheet interconnected by cytoplasm, which proceed through mitosis meta-cynchronously. Because of this, it is possible to inject fluorescent probes like rhodamine tubulin into fly embryos that are transgenically carrying Green Fluorescent protein (GFP)-labeled chromosomes to watch chromosome move on spindle microtubules in real-time. […]

## GEKETPVQKCQRLQIEMNELLNEVAALQVDRKVADEEKQSYDAVVATVISTAR (Drosophila melanogaster) [peptide underlined in FIG. 4]
Embryo microinjected with peptide, still images at about 80 seconds intervals, FIG. 5 panels C-E, rhodamine tubulin, GFP-histone
  formation of two daughter nuclei on mitotic spindles (chromosome separation from the metaphase plate): no spindles upon which two daughter nuclei are formed
Embryos injected with the peptide, during mitosis
  defects in spindle structure: no significant defects in spindle structure
Initial studies, peptide-injected Drosophila embryos
  ability of chromosomes to separate in proliferative cells: strongly and specifically inhibits
